According to US6369083B1, “2-methoxyimino-2 (pyrinyloxymethyl) phenyl acetamides with polyether derivatives on the pyridine ring” (Dow AgroSciences LLC, priority 1998, dated 2002):

What was measured:
Type in all cases: in vivo
Plasmopara viticola = assay: Downy Mildew of Grape (PLASVI), 96 hour protectant; conditions: grape vines (cultivar Carignane), sprayed at 100 ppm, inoculated after 96 hours (protectant)
Method: Compound Formulation: […] Final treatment volumes were obtained by adding nine volumes 0.05kOO aqueous Tween-20 or Triton X-100, depending upon the pathogen. Downy Mildew of Grape (Plasmogara viticola-[…]) (96 Hour Protectant): Vines (cultivar Carignane) were grown from seed in a soilless peat-based potting mixture (Metromix) until the seedlings were 10-20 cm tall. These plants were then sprayed to run off with the test compound at a rate of 100 ppm. After 96 hours the test plants were inoculated by spraying with an aqueous sporangia suspension of Plasmopara viticola. The plants were then transferred to the greenhouse until disease developed on the untreated control plants. The following table presents the activity of typical compounds of the present invention when evaluated in these experiments. The effectiveness of the test compounds in controlling disease was rated using the following scale: […]

Erysiphe graminis = assay: Powdery Mildew of Wheat (ERYSGT); conditions: wheat (cultivar Monon), inoculated, sprayed at 25 ppm after 48 hours
Method: Compound Formulation: […] Final treatment volumes were obtained by adding nine volumes 0.05kOO aqueous Tween-20 or Triton X-100, depending upon the pathogen. Powdery Mildew of Wheat (Erysiphe graminis-[…]): Wheat (cultivar Monon) was grown in a soilless peat-based potting mixture (Metromix) until the seedlings were 1-2 leaf (BBCH 12). These plants were then inoculated with Erysiphe graminis by dusting spores from stock plants onto the test plants. After 48 hours the plants were sprayed to run off with the test compound at a rate of 25 ppm and then kept in the greenhouse until disease developed on the untreated control plants. The following table presents the activity of typical compounds of the present invention when evaluated in these experiments. The effectiveness of the test compounds in controlling disease was rated using the following scale: […]

Leptosphaeria nodorum = assay: Glume blotch of wheat (LEPTNO); conditions: wheat (cultivar Monon), sprayed at 100 ppm, inoculated after 24 hours
Method: Compound Formulation: […] Final treatment volumes were obtained by adding nine volumes 0.05kOO aqueous Tween-20 or Triton X-100, depending upon the pathogen. Glume blotch of wheat (Leptosphaeria nodorum-[…]): Wheat (cultivar Monon) was grown from seed in a soilless peat-based potting mixture (Metromix) until the seedlings were 1-2 leaf (BBCH 12). These plants were then sprayed to run off with the test compound at a rate of 100 ppm. After 24 hours the test plants were inoculated with an aqueous spore suspension of Leptosphaeria nodorum. The plants were then transferred to the greenhouse until disease developed on the untreated control plants. Brown rust (Puccinia recondita-PUCCRT): Wheat (cultivar Monon) was grown from seed in a soilless peat-based potting mixture (Metromix) until the seedlings were 1-2 leaf (BBCH 12). These plants were then sprayed to run off with the test compound at a rate of 100 ppm. After 24 hours the test plants were inoculated with an aqueous spore suspension of Puccinia recondita. The plants were then transferred to the greenhouse until disease developed on the untreated control plants. The following table presents the activity of typical compounds of the present invention when evaluated in these experiments. The effectiveness of the test compounds in controlling disease was rated using the following scale: […]

Septoria tritici = assay: Septoria leaf spot (SEPTTR); conditions: wheat (cultivar Monon), sprayed at 100 ppm, inoculated after 24 hours
Method: Compound Formulation: […] Final treatment volumes were obtained by adding nine volumes 0.05kOO aqueous Tween-20 or Triton X-100, depending upon the pathogen. Septoria leaf spot (Septoria tritici-[…]): Wheat (cultivar Monon) was grown from seed in a soilless peat-based potting mixture (Metromix) until the seedlings were 1-2 leaf (BECH 12). These plants were then sprayed to run off with the test compound at a rate of 100 ppm. After 24 hours the test plants were inoculated with an aqueous spore suspension of Septoria tritici. The plants were then transferred to the greenhouse until disease developed on the untreated control plants. The following table presents the activity of typical compounds of the present invention when evaluated in these experiments. The effectiveness of the test compounds in controlling disease was rated using the following scale: […]

Row | Compound | PLASVI control of plant disease (Plasmopara viticola) | ERYSGT control of plant disease (Erysiphe graminis) | LEPTNO control of plant disease (Leptosphaeria nodorum) | SEPTTR control of plant disease (Septoria tritici)
1 | CCOc1cccc2nc(Sc3cccc(OCc4ccccc4C(=NOC)C(=O)NC)n3)sc12 [Compound 13] | + (+ = 25-74% control of plant disease) | − (− = 0-24% control of plant disease) | + (+ = 25-74% control of plant disease) | –
2 | CCOCCOCCOc1nc(OCc2ccccc2C(=NOC)C(=O)NC)c(Cl)cc1Cl [Compound 16] | ++ (++ = 75-100 % control of plant disease) | ++ (++ = 75-100 % control of plant disease) | + (+ = 25-74% control of plant disease) | –
3 | CCOCCOc1cccc(OCc2ccccc2C(=NOC)C(=O)NC)n1 [Compound 17] | ++ (++ = 75-100 % control of plant disease) | + (+ = 25-74% control of plant disease) | ++ (++ = 75-100 % control of plant disease) | –
4 | CCOCCOc1nc(OCc2ccccc2C(=NOC)C(=O)NC)c(Cl)cc1Cl [Compound 18] | ++ (++ = 75-100 % control of plant disease) | + (+ = 25-74% control of plant disease) | ++ (++ = 75-100 % control of plant disease) | –
5 | CCCOCCOCCOc1nc(OCc2ccccc2C(=NOC)C(=O)NC)c(Cl)cc1Cl [Compound 19] | + (+ = 25-74% control of plant disease) | + (+ = 25-74% control of plant disease) | ++ (++ = 75-100 % control of plant disease) | –
6 | CCSCCSc1cccc(OCc2ccccc2C(=NOC)C(=O)NC)n1 [Compound 50] | ++ (++ = 75-100 % control of plant disease) | − (− = 0-24% control of plant disease) | – | –
7 | CNC(=O)C(=NOC)c1ccccc1COc1cccc(OCCOCc2ccccc2)n1 [Compound 51] | ++ (++ = 75-100 % control of plant disease) | ++ (++ = 75-100 % control of plant disease) | – | –
8 | CCOCCCOc1cccc(OCc2ccccc2C(=NOC)C(=O)NC)n1 [Compound 55] | – | + (+ = 25-74% control of plant disease) | + (+ = 25-74% control of plant disease) | –
9 | CCCCC(CC)COCCOc1cccc(OCc2ccccc2C(=NOC)C(=O)NC)n1 (stereo not shown) [Compound 56] | ++ (++ = 75-100 % control of plant disease) | – | – | ++ (++ = 75-100 % control of plant disease)
10 | CNC(=O)C(=NOC)c1ccccc1COc1cccc(SCc2ccc(OC)cc2)n1 [Compound 57] | – | – | – | ++ (++ = 75-100 % control of plant disease)
11 | CNC(=O)C(=NOC)c1ccccc1COc1cccc(OCCOC2CCC2)n1 [Compound 58] | ++ (++ = 75-100 % control of plant disease) | – | – | ++ (++ = 75-100 % control of plant disease)
12 | CCCOCCOc1cccc(OCc2c(Cl)cccc2C(=NOC)C(=O)NC)n1 [Compound 60] | ++ (++ = 75-100 % control of plant disease) | – | – | ++ (++ = 75-100 % control of plant disease)
13 | CCCCCOCCOc1cccc(OCc2ccccc2C(=NOC)C(=O)NC)n1 [Compound 61] | ++ (++ = 75-100 % control of plant disease) | – | – | ++ (++ = 75-100 % control of plant disease)
14 | CNC(=O)C(=NOC)c1ccccc1COc1cccc(OCCOC2CCCCC2)n1 [Compound 62] | ++ (++ = 75-100 % control of plant disease) | – | – | + (+ = 25-74% control of plant disease)
15 | CCOc1ccccc1Oc1cccc(OCc2ccccc2C(=NOC)C(=O)NC)n1 [Compound 64] | ++ (++ = 75-100 % control of plant disease) | – | – | ++ (++ = 75-100 % control of plant disease)
16 | CCOCCCCOc1cccc(OCc2ccccc2C(=NOC)C(=O)NC)n1 [Compound 65] | ++ (++ = 75-100 % control of plant disease) | – | – | ++ (++ = 75-100 % control of plant disease)
17 | CNC(=O)C(=NOC)c1ccccc1COc1cccc(OCCCCCOCc2ccccc2)n1 [Compound 66] | ++ (++ = 75-100 % control of plant disease) | – | – | ++ (++ = 75-100 % control of plant disease)

Row | Compound | PLASVI control of plant disease (Plasmopara viticola) | ERYSGT control of plant disease (Erysiphe graminis) | LEPTNO control of plant disease (Leptosphaeria nodorum) | SEPTTR control of plant disease (Septoria tritici)
18 | CCOc1ccc(Oc2cccc(OCc3ccccc3C(=NOC)C(=O)NC)n2)cc1 [Compound 68] | ++ (++ = 75-100 % control of plant disease) | – | – | + (+ = 25-74% control of plant disease)
19 | CCCCCCOCCOc1cccc(OCc2ccccc2C(=NOC)C(=O)NC)n1 [Compound 70] | + (+ = 25-74% control of plant disease) | – | – | + (+ = 25-74% control of plant disease)
20 | CNC(=O)C(=NOC)c1ccccc1COc1cccc(OCCCOCCCOC)n1 [Compound 71] | – | – | – | − (− = 0-24% control of plant disease)
21 | C=CC(COC)Oc1cccc(OCc2ccccc2C(=NOC)C(=O)NC)n1 (stereo not shown) [Compound 72] | – | – | – | − (− = 0-24% control of plant disease)
22 | CNC(=O)C(=NOC)c1ccccc1COc1cccc(OCCOC(CCC#N)OC)n1 (stereo not shown) [Compound 73] | – | – | – | − (− = 0-24% control of plant disease)
23 | CNC(=O)C(=NOC)c1ccccc1COc1cccc(OCCOCC2CO2)n1 (stereo not shown) [Compound 74] | – | – | – | ++ (++ = 75-100 % control of plant disease)
24 | CCCCCOCCOc1cccc(OCc2c(F)cccc2C(=NOC)C(=O)NC)n1 [Compound 75] | – | – | – | ++ (++ = 75-100 % control of plant disease)
25 | CCCCCOCCOc1cccc(OCc2c(Cl)cccc2C(=NOC)C(=O)NC)n1 [Compound 76] | – | – | – | ++ (++ = 75-100 % control of plant disease)
26 | CCOCCCOc1cccc(OCc2c(F)cccc2C(=NOC)C(=O)NC)n1 [Compound 77] | – | – | – | ++ (++ = 75-100 % control of plant disease)
27 | CCOCCCOc1cccc(OCc2c(Cl)cccc2C(=NOC)C(=O)NC)n1 [Compound 78] | – | – | – | ++ (++ = 75-100 % control of plant disease)
28 | CNC(=O)C(=NOC)c1cccc(F)c1COc1cccc(OCCCOC(C)C)n1 [Compound 79] | – | – | – | ++ (++ = 75-100 % control of plant disease)
29 | CNC(=O)C(=NOC)c1cccc(Cl)c1COc1cccc(OCCCOC(C)C)n1 [Compound 80] | – | – | – | ++ (++ = 75-100 % control of plant disease)
30 | CNC(=O)C(=NOC)c1ccccc1COc1cccc(Oc2ccccc2OC)n1 [Compound 81] | – | – | – | + (+ = 25-74% control of plant disease)
31 | CNC(=O)C(=NOC)c1ccccc1COc1cccc(OCc2ccccc2OC)n1 [Compound 82] | – | – | – | ++ (++ = 75-100 % control of plant disease)
32 | CNC(=O)C(=NOC)c1ccccc1COc1cccc(OCc2ccc(OC)cc2)n1 [Compound 83] | – | – | – | ++ (++ = 75-100 % control of plant disease)
33 | CCOc1ccc(Sc2cccc(OCc3ccccc3C(=NOC)C(=O)NC)n2)cc1 [Compound 85] | – | – | – | − (− = 0-24% control of plant disease)
34 | Benzeneacetamide, 2-[[[6-(2-(2-ethoxyethoxy)ethoxy) -2-pyridinyl]oxy]methyl]-α-(methoxyimino)-N-methyl- [Compound 21] | ++ (++ = 75-100 % control of plant disease) | – | + (+ = 25-74% control of plant disease) | –
